These results are taken from PMC11681159, “Bee pollen peptides as potent tyrosinase inhibitors with anti-melanogenesis effects in murine b16f10 melanoma cells and zebrafish embryos” (Scientific Reports, 2024).

Common to all, as to format: cell-based, mouse
One series has as its system B16F10 melanoma cells. The series can be described thus: Cell viability assay (MTT). To be noted: 72 h. As to the method:
To perform the assay to establish cell viability, a 96-well plate was used for the seeding of the B16F10 cells at 5 × 10^3 cells/well. The cells were then left overnight to allow adherence. The VY-9 peptide at varying concentrations was then used to treat the cells for 72 h. MTT was produced as a 2.5 mg/mL solution in PBS whereupon 10 µL of this MTT solution was introduced to each well before incubating the plate for 4 h at 37 °C inside a humid 5% CO2 incubator. Following this step, the medium was removed the wells, and 200 µL of DMSO was added in its place. Finally, a microplate reader was employed to measure the absorbance for each of the wells at 540 nm, while arbutin (0.2 mM) served as the positive control. Each test was carried out in triplicate, with the findings presented in the form of mean ± standard deviation.

Series [1] has as its system TYR in B16F10 melanoma cells. In words: Cellular TYR assay. To be noted: VY-9 1.6 µM, 48 h, L-DOPA, 490 nm. The protocol:
In order to assess the rate of oxidation for L-DOPA, culture flasks were used to first grow B16F10 cells (1 × 10^5 cells/flask) for 24 h. […] Cell harvesting was conducted by trypsinization and the cells were then rinsed twice in cold PBS. In the next step, PBS buffer (0.2 mL, pH 6.8) which contained 1% (w/v) Triton X-100 and 1 mM PMSF was introduced to the lysed cell pellets, whereupon amounts of 100 µL of the lysed cells were added to a 96-well plate by pipette, along with 100 µL of 2 mM L-DOPA. This was followed by a one-hour incubation period while the temperature was maintained at 37 °C. A microplate reader was then used to detect the formation of dopachrome in the mixture at 490 nm. The findings are presented in terms of percentage of the control, while arbutin (0.2 mM) served as the positive control. Each test was carried out in triplicate, with the findings presented in the form of mean ± standard deviation.

Series [2] concerns Tyr. In words: qRT-PCR, Tyr mRNA. To be noted: B16F10, 48 h. As to the method: (§1) A 6-well plate was used to seed B16F10 cells at 1 × 10^5 cells per well prior to overnight incubation in a 5% CO2 humid atmosphere at 37°C. […] Harvesting was conducted via removal of the supernatant, and the cells were rinsed twice in PBS (phosphate-buffered saline). The PureLink™RNA Mini Kit (Invitrogen™, USA) was then used to extract total RNA in line with the guidance of the manufacturer. RNA concentration was assessed at 260 nm with a NanoDrop 2000 UV-Vis spectrophotometer (Thermo Fisher Scientific, Inc.). Oligo-dT primers and a Precision nanoScript II Reverse Transcription Kit (PrimerDesign, Camberley, UK) were used to perform the reverse transcription of 1 µg of total RNA to cDNA in line with the guidance of the manufacturer. MyGo Pro®Real time PCR apparatus (IT-IS International Ltd., Stokesley, UK) was then used to perform the qRT-PCR assays in which 20 µL of PCR reaction contained 1 µL of cDNA, 7 µL of ultrapure water, 1 µL of each primer […], and 10 µL of 2×qPCRBIO SyGreen Mix (PCR Biosystems Ltd, London, UK). […] The relative gene expression level could then be calculated via the cycle threshold (Ct) value, while the role of endogenous control for data normalization was occupied by Gapdh (the housekeeping gene). […]
In general terms: Real-time PCR tracks product formation cycle by cycle.

The subject of series [3] is Trp-1. In words: qRT-PCR, Trp-1 mRNA. The conditions noted are these: B16F10, 48 h. As to the method:
as §1

Series [4] relates to Tyr. In words: Western blot, TYR protein. The conditions noted are these: B16F10, 48 h. As to the method: (§2) Western blot analysis was performed to measure TYR (TYR, TRP-1, TRP-2, and MITF) in B16F10 cells in line with the approach discussed by Yoon et al.[65]. whereby the B16F10 cells underwent treatment for 48 h using various peptide amounts ([…]) and also with arbutin (0.2 mM). Following this process, the cells were lysed using NP40 Cell Lysis Buffer with protease inhibitor cocktail supplementation. Next, 12% sodium dodecyl sulfate poly-acrylamide (SDS-PAGE) gel electrophoresis was used to extract equal quantities of protein from each sample, with subsequent transfer to PVD (polyvinylidene fluoride) membranes (Millipore, Bedford, MA, USA). The membrane was blocked overnight with 3% skimmed milk (w/v) in TBST with 0.5% Tween 20 at 4 °C and then washed thrice in TBST. The rabbit polyclonal anti-TYR antibody (dilution 1:1000), anti-TRP-1 antibody (dilution 1:1000), anti-TRP-2 antibody and anti-MITF antibody (dilution 1:1000) obtained from Abcam (USA), were used respectively to detect the TYR, TRP-1, TRP-2, and MITF bands. After thrice washing again in TBST, secondary antibodies (dilution 1:5000) were added to the membranes for 1 h of incubation at room temperature before another triplicate washing in TBST. […] The software facilitated the identification and quantification of protein expression levels.

The test system of series [5] is Trp-1. In words: Western blot, TRP-1 protein. To be noted: B16F10, 48 h. The protocol:
as §2

Entries after “also recorded” stand apart in the source; their conditions may differ. Ends that are not written are not given here.

On to “VDGYPAAGY [VY-9, Val-Asp-Gly-Tyr-Pro-Ala- Ala-Gly-Tyr]”, for which the “cytotoxicity in B16F10 cells” value in the series with B16F10 melanoma cells (0 to 1.6 µM (abstract: 0.2–1.6 µM)) was “negligible cytotoxicity; also recorded: no clear signs of cytotoxicity”. In the series on B16F10 melanoma cells (0 to 1.6 µM, triplicate), the B16F10 cell viability was > 50%. For the same sequence, the “cellular TYR activity, rate of inhibition” value in series [1] was determined as 44.88%. Moreover, the “Tyr mRNA expression vs control” value in the series on Tyr [2] (1.6 µM) was “significantly reduced the expression levels of all measured genes”. The “concentration from which Tyr mRNA expression decreased” value with Tyr [2] (vs control) was determined as 0.4 µM. For the same sequence, the “Trp-1 mRNA expression vs control” value with Trp-1 [3] (1.6 µM) is reported as “significantly reduced the expression levels of all measured genes”. For the same sequence, the “concentration at which Trp-1 mRNA expression was reduced (highest only)” value in the series on Trp-1 [3] (vs control) was 1.6 µM. The “TYR protein expression vs control” value in the series on Tyr [4] (1.6 µM) is reported as “the expression of all proteins decreased compared to the control”. Moreover, the “concentration from which TYR protein expression decreased” value in the series with Tyr [4] (western blot) is given as 0.4 µM. Moreover, in the series with Trp-1 [5] (1.6 µM), the “TRP-1 protein expression vs control” value is on record as “the expression of all proteins decreased compared to the control”. Moreover, the “concentration from which TRP-1 protein expression gradually decreased” value in the series with Trp-1 [5] (western blot) amounted to 0.2 µM.
